Values of other authors, collected in patent publication US20060172021A1, “Herbal compositions for the prevention or treatment of symptoms of stress and infection” (priority 2005, published 2006).

Experiments:
female mice = details: mouse, in vivo
[1] = tested on: human progesterone production

C=C1CC[C@@H]2[C@](C)(CO)[C@H](O)CC[C@@]2(C)[C@@H]1/C=C/C1=CCOC1=O [dehydroandrographolide]
Dose required to affect pregnancy (female mice): 250 mg/kg. of body weight. This amount of pure

CCCCCC(=O)/C=C(O)/C=C\c1ccc(O)c(OC)c1 [dehydrogingerdione]
Inhibition of prostaglandin synthesis (prostaglandin synthesis): potent inhibitors

CCCCCC(=O)CC(=O)CCc1ccc(O)c(OC)c1 [gingerdione]
Inhibition of prostaglandin synthesis (prostaglandin synthesis): potent inhibitors

CCCCC[C@H](O)CC(=O)CCc1ccc(O)c(OC)c1 [gingerol]
Inhibition of prostaglandin synthesis (prostaglandin synthesis): potent inhibitors

andrographolide sodium succinate
Detrimental effects on other normal human tissue [1]: intended for. There were no detrimental effects | Inhibition of human progesterone production ([1]; cultured human placental tissue): (derived from AP) was effective in inhibiting
